Source: patent US6177253A, “Screening methods for the identification of anti-HIV compounds employing a cyclosporine-specific monoclonal antibody that cross-reacts with HIV-1 p24” (priority 1998, dated 2001)

How the values were obtained:
Type in all cases: binding, BALB/c mice
G7 1.1 = experiment: ELISA inhibition by singly modified Cs-derivatives, McAb G7 1.1; settings: group I; McAb binds selectively to Thr^2 -Cs-BSA coating
Method: (§1) A second ELISA Procedure used conjugates of D-Lys^8 -Cs-BSA and Thr^2 -Cs-BSA for coating (Queeniaux et al., 1987b). An indirect detection system consisting of rabbit anti-mouse Ig followed by alkaline phosphates-conjugated goat anti-rabbit IgG was performed as previously described (Queenlaux et al., 1987b).
(§2) The binding of the 22 McAbs to these two Cs-BSA conjugates was also found to correlate well with their fine specificity patterns, as characterized with a set of 28-36 Cs derivatives. Typical ELISA curves showing McAb binding either to D-Lys^8 -Cs-BSA (panel A) or to Thr^2 -Ca-BSA (panel B) and inhibited by Cs or Cs derivatives are shown in FIGS. 8A-8B, D-Lys^8 -Cs-BSA was subsequently used for coating in the inhibition experiments, except for those McAbs binding selectively to Thr^2 -Cs-BSA (see Table 4 and FIGS. 7A-7C). An example of the binding of 26 Cs derivatives by McAbs belonging to each of the five specificity groups mentioned above is reported in Table 5. The results are expressed as the difference of IC50 (in log10) between the Cs derivatives and Cs. All Cs-derivatives used in this study were selected for having a conserved peptide ring conformation compared with CsA (as determined in NMR or X-ray diffraction).

H6 1.5 = experiment: ELISA inhibition by singly modified Cs-derivatives, McAb H6 1.5; settings: group III; D-Lys^8 -Cs-BSA coating
Method: as §1, §2

B11 1.4 = experiment: ELISA inhibition by singly modified Cs-derivatives, McAb B11 1.4; settings: group IV; D-Lys^8 -Cs-BSA coating
Method: as §1, §2

C4 2.2 = experiment: ELISA inhibition by singly modified Cs-derivatives, McAb C4 2.2; settings: group V; McAb binds selectively to Thr^2 -Cs-BSA coating
Method: as §1, §2

H4 1.3 = experiment: ELISA inhibition by singly modified Cs-derivatives, McAb H4 1.3; settings: group II; D-Lys^8 -Cs-BSA coating
Method: as §1, §2

SMILES	log10 difference in the concentrations of Cs-derivatives and unmodified Cs required to achieve 50% inhibition in ELISA, McAb G7 1.1 (G7 1.1) [log10]	log10 difference in the concentrations of Cs-derivatives and unmodified Cs required to achieve 50% inhibition in ELISA, McAb H6 1.5 (H6 1.5) [log10]	log10 difference in the concentrations of Cs-derivatives and unmodified Cs required to achieve 50% inhibition in ELISA, McAb B11 1.4 (B11 1.4) [log10]	log10 difference in the concentrations of Cs-derivatives and unmodified Cs required to achieve 50% inhibition in ELISA, McAb C4 2.2 (C4 2.2) [log10]	log10 difference in the concentrations of Cs-derivatives and unmodified Cs required to achieve 50% inhibition in ELISA, McAb H4 1.3 (H4 1.3) [log10]
C/C=C/C[C@@H](C)[C@@H](O)[C@H]1C(=O)N[C@@H](C)C(=O)N(C)CC(=O)N(C)[C@@H](CC(C)C)C(=O)N[C@@H](C(C)C)C(=O)N(C)[C@@H](CC(C)C)C(=O)N[C@@H](C)C(=O)N[C@H](C)C(=O)N(C)[C@@H](CC(C)C)C(=O)N(C)[C@@H](CC(C)C)C(=O)N(C)[C@@H](C(C)C)C(=O)N1C [Abu^2 Ala]	0.2	0.0	0.4	0.1	–
C/C=C/C[C@@H](C)[C@@H](O)[C@H]1C(=O)N[C@@H](CO)C(=O)N(C)CC(=O)N(C)[C@@H](CC(C)C)C(=O)N[C@@H](C(C)C)C(=O)N(C)[C@@H](CC(C)C)C(=O)N[C@@H](C)C(=O)N[C@H](C)C(=O)N(C)[C@@H](CC(C)C)C(=O)N(C)[C@@H](CC(C)C)C(=O)N(C)[C@@H](C(C)C)C(=O)N1C [Abu^2 Ser]	< 0.0	0.6	0.0	0.2	0.9
C/C=C/C[C@@H](C)[C@@H](O)[C@H]1C(=O)N[C@@H]([C@H](C)O)C(=O)N(C)CC(=O)N(C)[C@@H](CC(C)C)C(=O)N[C@@H](C(C)C)C(=O)N(C)[C@@H](CC(C)C)C(=O)N[C@@H](C)C(=O)N[C@H](C)C(=O)N(C)[C@@H](CC(C)C)C(=O)N(C)[C@@H](CC(C)C)C(=O)N(C)[C@@H](C(C)C)C(=O)N1C [Abu^2 aThr]	< 0.0	1.1	0.0	0.3	1.5
C/C=C/C[C@@H](C)[C@@H](O)[C@H]1C(=O)N[C@@H](CC)C(=O)N(C)CC(=O)N(C)[C@@H](CC(C)C)C(=O)N[C@@H](C(C)C)C(=O)N(C)[C@@H](CC(C)C)C(=O)N[C@@H](CC)C(=O)N[C@H](C)C(=O)N(C)[C@@H](CC(C)C)C(=O)N(C)[C@@H](CC(C)C)C(=O)N(C)[C@@H](C(C)C)C(=O)N1C [Ala^7 Abu]	< 0.0	0.0	0.0	< 0.0	0.0
C/C=C/C[C@@H](C)[C@@H](O)[C@H]1C(=O)N[C@@H](CC)C(=O)N(C)CC(=O)N(C)[C@@H](CC(C)C)C(=O)N[C@@H](C(C)C)C(=O)N(C)[C@@H](CC(C)C)C(=O)N[C@@H](C)C(=O)N[C@H](CCCCNC(=O)OC(C)(C)C)C(=O)N(C)[C@@H](CC(C)C)C(=O)N(C)[C@@H](CC(C)C)C(=O)N(C)[C@@H](C(C)C)C(=O)N1C [D-Ala^8 Boc-D-Lys]	2.0	0.0	0.3	1.2	0.6
